Experimental data from US20240327412A1, “FACTOR XIIA INHIBITORS” (KALVISTA PHARMACEUTICALS LIMITED, priority 2021, published 2024).

biological target: T1, Human Factor XIIa (Homo sapiens, UniProt P00748); experiment: Determination of FXIIa inhibition (fluorogenic substrate H-DPro-Phe-Arg-AFC, IC50 assay); assay type: biochemical; settings: substrate at Km concentration, 25° C.; category scale; read-out: Human FXII IC50 (nm)
T1 construct: Proteolytic cleavage of FXII to heavy and light chains of FXIIa dramatically increases catalytic activity; purchased Enzyme Research Laboratories
T1 sequence (P00748 373-615 limits assumed): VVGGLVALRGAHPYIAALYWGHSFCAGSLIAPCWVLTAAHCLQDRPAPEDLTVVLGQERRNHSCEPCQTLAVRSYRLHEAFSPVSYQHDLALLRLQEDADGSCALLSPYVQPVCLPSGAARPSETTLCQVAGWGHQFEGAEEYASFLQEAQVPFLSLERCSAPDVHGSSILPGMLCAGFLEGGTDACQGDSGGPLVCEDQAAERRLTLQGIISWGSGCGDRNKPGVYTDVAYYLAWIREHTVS
T1 sequence (P00748 20-372 partner limits assumed): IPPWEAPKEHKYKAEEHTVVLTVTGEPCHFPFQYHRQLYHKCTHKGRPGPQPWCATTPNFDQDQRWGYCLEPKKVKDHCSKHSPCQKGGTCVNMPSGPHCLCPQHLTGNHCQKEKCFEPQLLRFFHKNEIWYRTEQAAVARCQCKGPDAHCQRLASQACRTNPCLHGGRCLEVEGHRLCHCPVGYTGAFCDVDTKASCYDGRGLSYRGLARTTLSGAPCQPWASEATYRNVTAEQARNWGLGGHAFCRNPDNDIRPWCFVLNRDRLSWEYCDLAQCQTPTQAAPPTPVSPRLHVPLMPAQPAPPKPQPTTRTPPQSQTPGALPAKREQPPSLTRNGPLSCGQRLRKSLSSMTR
Experimental: In vitro inhibition of Factor XIIa was determined using an IC50 assay based on standard literature methods (see e.g Baeriswyl et al., ACS Chem. Biol., 2015, 10 (8) 1861; Bouckaert et al., European Journal of Medicinal Chemistry 110 (2016) 181). Human Factor XIIa (Enzyme Research Laboratories) was incubated at 25° C. with the fluorogenic substrate H-DPro-Phe-Arg-AFC (Peptide Protein Science) and various concentrations of the test compound. Protease activity was measured by monitoring the accumulation of liberated fluorescence from the substrate over 5 min at 25° C. The linear rate of fluorescence increase per minute was expressed as percentage (%) activity. The Km for the cleavage of the substrate by FXIIa was determined by standard transformation of the Michaelis-Menten equation. The compound inhibitor assays were performed at substrate Km concentration. IC50 values were calculated as the concentration of inhibitor giving 50% inhibition (IC50) of the uninhibited enzyme activity (100%).

Row | Structure (SMILES) | IC50
1 | Cc1cnc2ccc(OCC34COC(CNc5ccccc5CC(F)(F)F)(C3)C4)cn12 [Example 6659, N-((4-(((3-methylimidazo[1,2-a]pyridin-6-yl)oxy)methyl)-2-oxabicyclo[2.1.1]hexan-1-yl)methyl)-2-(2,2,2-trifluoroethyl)aniline] | 40000 to 100000 nM
2 | Nc1nccc2c(NCC34CC(COc5ccc6c(c5)CCNC6=O)(CO3)C4)cccc12 [Example 6637, 6-((1-(((1-aminoisoquinolin-5-yl)amino)methyl)-2-oxabicyclo[2.1.1]hexan-4-yl)methoxy)-3,4-dihydroisoquinolin-1(2H)-one] | 100 to 300 nM
3 | Cn1ccc(OCC23CN(C(=O)NCc4ccccc4F)C(CNc4cccc5c(N)nccc45)(C2)C3)cc1=O [Example 12058, 1-(((1-aminoisoquinolin-5-yl)amino)methyl)-N-(2-fluorobenzyl)-4-(((1-methyl-2-oxo-1,2-dihydropyridin-4-yl)oxy)methyl)-2-azabicyclo[2.1.1]hexane-2-carboxamide] | 10 to 100 nM
4 | Cn1ccc(OCC23CC(CNc4cccc5c(N)nccc45)(CN2C(=O)NCc2ccccc2)C3)cc1=O [Example 13012, 4-(((1-aminoisoquinolin-5-yl)amino)methyl)-N-benzyl-1-(((1-methyl-2-oxo-1,2-dihydropyridin-4-yl)oxy)methyl)-2-azabicyclo[2.1.1]hexane-2-carboxamide] | 10 to 100 nM
5 | Nc1nccc2c(NCC34CC(COc5ccc6ncc(C7CC7)n6c5)(CO3)C4)cccc12 [Example 6639, N5-((4-(((3-cyclopropylimidazo[1,2-a]pyridin-6-yl)oxy)methyl)-2-oxabicyclo[2.1.1]hexan-1-yl)methyl)isoquinoline-1,5-diamine] | 10 to 100 nM
6 | Cc1nccc(OCC23CCOC(CNc4cccc5c(N)nccc45)(C2)C3)n1 [Example 10974, N5-((5-(((2-methylpyrimidin-4-yl)oxy)methyl)-2-oxabicyclo[3.1.1]heptan-1-yl)methyl)isoquinoline-1,5-diamine] | 3000 to 10000 nM
7 | CN(Cc1ccccc1)C(=O)N1CC2(COc3ccn(C)c(=O)c3)CC1(CNc1cccc3c(N)nccc13)C2 [Example 12041, 1-[[(1-Amino-5-isoquinolyl)amino]methyl]-N-benzyl-N-methyl-4-[(1-methyl-2-oxo-4-pyridyl)oxymethyl]-2-azabicyclo[2.1.1]hexane-2-carboxamide] | 1 to 10 nM
8 | COc1ccccc1NC(=O)N1CC2(COc3ccn(C)c(=O)c3)CC1(CNc1cccc3c(N)nccc13)C2 [Example 12059, 1-(((1-aminoisoquinolin-5-yl)amino)methyl)-N-(2-methoxyphenyl)-4-(((1-methyl-2-oxo-1,2-dihydropyridin-4-yl)oxy)methyl)-2-azabicyclo[2.1.1]hexane-2-carboxamide] | 10 to 100 nM
9 | Nc1nccc2c(NCC34CC(Cn5cccn5)(CO3)C4)cccc12 [Example 6645, N5-((4-((1H-pyrazol-1-yl)methyl)-2-oxabicyclo[2.1.1]hexan-1-yl)methyl)isoquinoline-1,5-diamine] | 10000 to 40000 nM
10 | Cc1cccc(OCC23CCOC(CNc4cccc5c(N)nccc45)(C2)C3)n1 [Example 10957, N5-((5-(((6-methylpyridin-2-yl)oxy)methyl)-2-oxabicyclo[3.1.1]heptan-1-yl)methyl)isoquinoline-1,5-diamine] | 3000 to 10000 nM
11 | COc1cc(OCC23COC(CNc4cccc5c(N)nccc45)(C2)C3)cn2ccnc12 [Example 6631, N5-((4-(((8-methoxyimidazo[1,2-a]pyridin-6-yl)oxy)methyl)-2-oxabicyclo[2.1.1]hexan-1-yl)methyl)isoquinoline-1,5-diamine] | 100 to 300 nM
12 | CC(C)c1cc(OCC23CCOC(CNc4cccc5c(N)nccc45)(C2)C3)cc(=O)n1C [Example 10949, 4-((1-(((1-aminoisoquinolin-5-yl)amino)methyl)-2-oxabicyclo[3.1.1]heptan-5-yl)methoxy)-6-isopropyl-1-methylpyridin-2(1H)-one] | 300 to 1000 nM
13 | Cn1ccc(OCC23CN(C(=O)OCc4ccccc4Cl)C(CNc4cccc5c(N)nccc45)(C2)C3)cc1=O [Example 12023, 2-chlorobenzyl 1-(((1-aminoisoquinolin-5-yl)amino)methyl)-4-(((1-methyl-2-oxo-1,2-dihydropyridin-4-yl)oxy)methyl)-2-azabicyclo[2.1.1]hexane-2-carboxylate] | 10 to 100 nM
14 | Cn1ccc(OCC23CN(C(=O)OCc4ccc5ccccc5c4)C(CNc4cccc5c(N)nccc45)(C2)C3)cc1=O [Example 12024, naphthalen-2-ylmethyl 1-(((1-aminoisoquinolin-5-yl)amino)methyl)-4-(((1-methyl-2-oxo-1,2-dihydropyridin-4-yl)oxy)methyl)-2-azabicyclo[2.1.1]hexane-2-carboxylate] | 100 to 300 nM
15 | Cn1ccc2cc(OCC34COC(CNc5cccc6c(N)nccc56)(C3)C4)ccc2c1=O [Example 6643, 6-((1-(((1-aminoisoquinolin-5-yl)amino)methyl)-2-oxabicyclo[2.1.1]hexan-4-yl)methoxy)-2-methylisoquinolin-1(2H)-one] | 300 to 1000 nM
16 | Nc1nccc2c(NCC34CC(COc5ccn6nncc6c5)(CCO3)C4)cccc12 [Example 10969, N5-((5-(([1,2,3]triazolo[1,5-a]pyridin-5-yloxy)methyl)-2-oxabicyclo[3.1.1]heptan-1-yl)methyl)isoquinoline-1,5-diamine] | 1000 to 3000 nM
17 | CN(Cc1ccccc1)C(=O)N1CC2(CNc3cccc4c(N)nccc34)CC1(COc1ccn(C)c(=O)c1)C2 [Example 13011, 4-(((1-aminoisoquinolin-5-yl)amino)methyl)-N-benzyl-N-methyl-1-(((1-methyl-2-oxo-1,2-dihydropyridin-4-yl)oxy)methyl)-2-azabicyclo[2.1.1]hexane-2-carboxamide] | 300 to 1000 nM
18 | CN1CCc2cc(OCC34COC(CNc5cccc6c(N)nccc56)(C3)C4)ccc2C1=O [Example 6640, 6-((1-(((1-aminoisoquinolin-5-yl)amino)methyl)-2-oxabicyclo[2.1.1]hexan-4-yl)methoxy)-2-methyl-3,4-dihydroisoquinolin-1(2H)-one] | 100 to 300 nM
19 | Cn1ccc(OCC23CN(c4ncc(-c5ccccc5)cn4)C(CNc4cccc5c(N)nccc45)(C2)C3)cc1=O [Example 12060, 4-((1-(((1-Aminoisoquinolin-5-yl)amino)methyl)-2-(5-phenylpyrimidin-2-yl)-2-azabicyclo[2.1.1]hexan-4-yl)methoxy)-1-methylpyridin-2(1H)-one] | 1 to 10 nM
20 | Nc1nccc2c(NCC34CC(COc5ccnnc5)(CCO3)C4)cccc12 [Example 10963, N5-((5-((pyridazin-4-yloxy)methyl)-2-oxabicyclo[3.1.1]heptan-1-yl)methyl)isoquinoline-1,5-diamine] | 3000 to 10000 nM
21 | Cn1ccc(OCC23CC(CNc4cccc5c(N)nccc45)(CN2S(=O)(=O)CCc2ccccc2)C3)cc1=O [Example 13014, 4-((4-(((1-aminoisoquinolin-5-yl)amino)methyl)-2-(phenethylsulfonyl)-2-azabicyclo[2.1.1]hexan-1-yl)methoxy)-1-methylpyridin-2(1H)-one] | 100 to 300 nM
22 | Cn1ccc(OCC23CN(C(=O)Cc4ccc5occc5c4)C(CNc4cccc5c(N)nccc45)(C2)C3)cc1=O [Example 12034, 4-((1-(((1-Aminoisoquinolin-5-yl)amino)methyl)-2-(2-(benzofuran-5-yl)acetyl)-2-azabicyclo[2.1.1]hexan-4-yl)methoxy)-1-methylpyridin-2(1H)-one] | 10 to 100 nM
23 | Cn1ccc(OCC23CN(S(=O)(=O)CCc4ccccc4)C(CNc4cccc5c(N)nccc45)(C2)C3)cc1=O [Example 12014, 4-[[1-[[(1-aminoisoquinolin-5-yl)amino]methyl]-2-(2-phenylethylsulfonyl)-2-azabicyclo[2.1.1]hexan-4-yl]methoxy]-1-methylpyridin-2-one] | 10 to 100 nM
24 | Cn1ccc(OCC23CN(C(=O)Cc4cccc5[nH]ccc45)C(CNc4cccc5c(N)nccc45)(C2)C3)cc1=O [Example 12040, 4-((2-(2-(1H-indol-4-yl)acetyl)-1-(((1-aminoisoquinolin-5-yl)amino)methyl)-2-azabicyclo[2.1.1]hexan-4-yl)methoxy)-1-methylpyridin-2(1H)-one] | 10 to 100 nM
25 | Cn1ccc(OCC23CC(CNc4cccc5c(N)nccc45)(CN2C(=O)CCc2ccccc2Cl)C3)cc1=O [Example 13017, 4-((4-(((1-aminoisoquinolin-5-yl)amino)methyl)-2-(3-(2-chlorophenyl)propanoyl)-2-azabicyclo[2.1.1]hexan-1-yl)methoxy)-1-methylpyridin-2(1H)-one] | 300 to 1000 nM
